In US20120046321A1, “METHODS OF TREATING ATRIAL FIBRILLATION WITH P38 INHIBITOR COMPOUNDS” (INTERMUNE, INC., priority 2005, published 2012):
Entries after “also recorded” stand apart in the source; their conditions may differ. Like-named read-outs stand apart in the source and are kept apart here.

Tests used:
[1] = tested on: matrix metalloproteinase (MMP)-9; assay: Western blot of atrial tissue; type: in vivo, canine; details: active form 88 kDa, CHF+PFD vs CHF
IL-6 = assay: Western blot of atrial tissue; type: in vivo, canine; details: 3 groups
TGF-β1 = details: cited from earlier work
TNF-α = assay: Western blot of atrial tissue; type: in vivo, canine; details: 3 groups
[2] = tested on: total c-Jun N-terminal kinase (JNK); assay: Western blot of atrial tissue; type: in vivo, canine; details: CHF+PFD vs CHF
Procedure: (§1) Expression of MAPks in atrial tissue was evaluated using Western Blot analysis. Briefly, atrial tissue specimen containing an equal amount of total protein (10 μg) was electrophoresed on a 4-20% Tris-glycine gel and then transferred onto a nitrocellulose filter. Non-specific binding sites were blocked with 4% BSA, and the filter was incubated with diluted antibody and a matched secondary antibody (all antibodies were obtained from Chemicon, Temecular, Calif.). Protein bands were analyzed with an enhanced chemiluminescence detection method using horseradish peroxidase, based on the recommendations from the manufacturer (NEN Life Science, Boston, Mass.).

total p-38 = assay: Western blot of atrial tissue; type: in vivo, canine; details: CHF+PFD vs CHF
Procedure: as §1

[3] = tested on: total extracellular signal-regulated protein kinase (ERK); assay: Western blot of atrial tissue; type: in vivo, canine; details: CHF+PFD vs CHF
Procedure: as §1

[4] = tested on: canines with ventricular tachypacing (VTP)-induced congestive heart failure (CHF); assay: Open-chest electrophysiology and epicardial mapping (ERP, CV, conduction heterogeneity); type: in vivo, canine
From the text: Briefly, 15 adult mongrel canines (weight 20 to 32 kgs) were divided into 3 groups (n=5 in each group) as follows: Group 1: Normal; Group 2: CHF canines not treated with PFD (or CHF); and Group 3: CHF canines treated with PFD (or CHF+PFD). […] The CHF and CHF+PFD canines underwent placement of a permanent single-chamber pacemaker with the pacing lead positioned in the right ventricular apex followed by radiofrequency catheter ablation of the AV junction to create complete heart block. Canines in the CHF and CHF+PFD groups underwent 3 weeks of VTP at a rate of 220 bpm. Oral PFD (800 mg three times a day) (InterMune, Brisbane, Calif.) was started 2 days prior to the initiation of VTP and was given for the full duration of the pacing period. During the follow-up EP study, each animal was anesthetized with isoflurane and mechanically ventilated. The pacemaker rate was set at 80 bpm at twice diastolic threshold for the entire EP study. The chest was opened with a midline sternotomy. A pericardial cradle was created, and 4 custom-made, epicardial, high-density plaques (left atrial free wall (LAFW); left atrial Bachmann's bundle (LABB); right atrial free wall (RAFW); right atrial Bachmann's bundle (RABB)) were placed over the atria (512 electrodes with an inter-electrode distance of 2.5 mm), similar to the setup described in Verheule S, et al., Circulation 107:2615-22 (2003) and Sih H J, et al. J Am Coll Cardiol. 36:924-31 (2000). Unipolar electrode signals were acquired (sampling rate 2 kHz) and stored with the UnEmap mapping system (University of Auckland, New Zealand). Electrode pairs on the epicardial plaque were used for bipolar stimulation at twice diastolic threshold. Effective refractory periods (ERPs) were measured at 12 atrial sites (6 in LA, 6 in RA) using the single extrastimulus protocol (S1S2) at an 8-beat drive train basic cycle lengths (BCLs) of 200, 300, and 400 ms. During stimulation of the contralateral Bachmann's bundle, conduction velocity (CV) was calculated between pairs of plaque electrodes perpendicular to the activation wavefront with a custom-written software. Verheule S, et al., Am J Physiol Heart Circ Physiol. 2004; 287:H634-44; and Bayly P V, et al., IEEE Trans Biomed Eng. 1998; 45:563-71. Used as a marker of conduction heterogeneity (Verheule S, et al., Am J Physiol Heart Circ Physiol. 2004; 287:H634-44; Bayly P V, et al., IEEE Trans Biomed Eng. 1998; 45:563-71; and Ausma J, et al., Circulation. 1997; 96:3157-63), the phase difference (ms/mm) was defined as the average difference in activation time between a plaque electrode from all of its neighboring electrodes normalized by the inter-electrode distance. Frequency histograms were constructed for the phase differences within an atrial region. The histograms were summarized as the median phase (P50), and the 5th and 95th percentile phase, or P5 and P95 of the distribution, respectively. Two measures were derived to quantify conduction heterogeneity: 1) absolute conduction heterogeneity, defined as P95-P5 (P95-5), and 2) conduction heterogeneity index, defined as the absolute conduction heterogeneity normalized by the median phase, or P95-5/P50.

[5] = tested on: canines with ventricular tachypacing (VTP)-induced congestive heart failure (CHF); assay: Histologic study of atrial fibrosis (Sirius red); type: in vivo, canine
From the text: Briefly, 15 adult mongrel canines (weight 20 to 32 kgs) were divided into 3 groups (n=5 in each group) as follows: Group 1: Normal; Group 2: CHF canines not treated with PFD (or CHF); and Group 3: CHF canines treated with PFD (or CHF+PFD). […] The CHF and CHF+PFD canines underwent placement of a permanent single-chamber pacemaker with the pacing lead positioned in the right ventricular apex followed by radiofrequency catheter ablation of the AV junction to create complete heart block. Canines in the CHF and CHF+PFD groups underwent 3 weeks of VTP at a rate of 220 bpm. Oral PFD (800 mg three times a day) (InterMune, Brisbane, Calif.) was started 2 days prior to the initiation of VTP and was given for the full duration of the pacing period. At the conclusion of the EP study, the animals were euthanized. Atrial tissue samples were fixed in 10% neutral buffered formalin. The samples were processed, embedded in paraffin, and sectioned into 4- to 5-μm-thick sections. The sections were stained in either H&E, Masson's trichrome, or Sirius red. […] To quantify fibrosis, the red pixel content of digitized images (Sirius red-stained) was measured relative to the total tissue area (red and green pixels) with the Adobe Photoshop 7.0 software package. Areas containing blood vessels and perivascular interstitial cells were excluded from fibrosis quantification. […]

IL-10 = assay: Western blot of atrial tissue; type: in vivo, canine; details: 3 groups

In the case of `Cc1ccc(=O)n(-c2ccccc2)c1` [PFD, 5-methyl-1-phenyl-2-(1H)-pyridone], the “Expression of MMP-9” value [1] is listed as “downregulation; also recorded: reduced”, the “Expression of IL-6” value (IL-6) is listed as “unchanged; also recorded: not markedly different” and the “Expression of TGF-β1” value (TGF-β1; animal models of lung fibrosis (Iyer et al.)) is listed as “significantly reduce”. The “Expression of TGF-β1” value (TGF-β1; hepatic fibrosis (Garcia et al.)) was “significantly reduce”, the “Expression of TGF-β1” value (TGF-β1; renal tubulointerstitial fibrosis (Shihab et al.)) was “significantly reduce” and the “Expression of TNF-α” value (TNF-α) was “unchanged; also recorded: not markedly different”. The “Expression of total JNK (c-Jun)” value [2] was “downregulation; also recorded: reduced”, the “Expression of total p-38” value (total p-38) was “downregulation; also recorded: reduced” and the “Expression of total ERK” value [3] was “downregulation; also recorded: reduced”. For the same molecule, the “LA CVs compared with the untreated group” value ([4]; 3 pacing BCLs) was “non-statistically significant increase”, the “LA ERPs” value ([4]; BCLs 200, 300, 400 ms, p=NS vs untreated, p<0.03 vs Normal) was “further lengthening” and the “Conduction heterogeneity index (P95-5/P50) in the LA” value ([4]; all BCLs, p<0.02 at 300 and 400 ms) was “reduction”. For the same molecule, the “Absolute conduction heterogeneity (P95-5) in the LA” value ([4]; all BCLs, p<0.04 at 400 ms) was “reduction”, the “Absolute conduction heterogeneity (P95-5) in the RA” value ([4]; p<0.003 at 400 ms) was “decrease” and the “Conduction heterogeneity index (P95-5/P50) in the RA” value ([4]; p<0.003 at 400 ms) was “decrease”. For the same molecule, the “Local conduction heterogeneity in isochronal activation maps” value ([4]; pacing CL 300 ms, 4 atrial plaques) was “less”, the “LA interstitial fibrosis, histologic finding” value ([5]; Sirius red stained LA sections) was “significant attenuation” and the “Percentage LA fibrosis” value ([5]; Sirius red, p<0.002 vs. CHF group (15.4±2.3%), Normals 3.2±1.0%) was 8.3±3.0%. For the same molecule, the “Expression of IL-10” value (IL-10) was “unchanged; also recorded: not markedly different”.
